Measurements as given in ChEMBL document CHEMBL1152405, “Bis-anthracenyl isoxazolyl amides have enhanced anticancer activity” (Bioorg Med Chem Lett, 2009).

Assays:
Assay type in all cases: functional
[1] = system: SW-620; experiment: Growth inhibition of human SW620 cells after 24 hrs by MTT assay; conditions: SW-620, 24 h
[2] = system: TK-10; experiment: Growth inhibition of human TK10 cells after 24 hrs by MTT assay; conditions: TK-10, 24 h
[3] = system: SF-268; experiment: Growth inhibition of human SF268 cells after 24 hrs by MTT assay; conditions: SF-268, 24 h
[4] = system: COLO 205; experiment: Growth inhibition of human COLO205 cells after 24 hrs by MTT assay; conditions: COLO 205, 24 h
[5] = system: SN12C; experiment: Growth inhibition of human SN12C cells after 24 hrs by MTT assay
[6] = system: M14; experiment: Growth inhibition of human M14 cells at 10 uM after 24 hrs by MTT assay relative to control; parameters: scale not given: the % may be the effect or the level left
[7] = system: HT-29; experiment: Growth inhibition of human HT-29 cells after 24 hrs by MTT assay; conditions: HT-29, 24 h
[8] = system: NCI/ADR-RES; experiment: Growth inhibition of human NCI/ADR-RES cells at 10 uM after 24 hrs by MTT assay relative to control; parameters: scale not given: the % may be the effect or the level left
[9] = system: HOP-62; experiment: Growth inhibition of human HOP62 cells after 24 hrs by MTT assay; conditions: HOP-62, 24 h
[10] = system: NCI-H322M; experiment: Growth inhibition of human NCI-H322M cells at 10 uM after 24 hrs by MTT assay relative to control; parameters: scale not given: the % may be the effect or the level left
[11] = system: NCI-H460; experiment: Growth inhibition of human NCI-H460 cells after 24 hrs by MTT assay; conditions: NCI-H460, 24 h
[12] = system: SR; experiment: Growth inhibition of human SR cells after 24 hrs by MTT assay
[13] = system: RXF 393; experiment: Growth inhibition of human RXF393 cells after 24 hrs by MTT assay; conditions: RXF 393, 24 h
[14] = system: SK-OV-3; experiment: Growth inhibition of human SKOV3 cells after 24 hrs by MTT assay; conditions: SK-OV-3, 24 h
[15] = system: SK-MEL-2; experiment: Growth inhibition of human SK-MEL-2 cells after 24 hrs by MTT assay; conditions: SK-MEL-2, 24 h
[16] = system: OVCAR-5; experiment: Growth inhibition of human OVCAR5 cells after 24 hrs by MTT assay; conditions: OVCAR-5, 24 h
[17] = system: SNB-75; experiment: Growth inhibition of human SNB75 cells after 24 hrs by MTT assay; conditions: SNB-75, 24 h
[18] = system: OVCAR-3; experiment: Growth inhibition of human OVCAR-3 cells at 10 uM after 24 hrs by MTT assay relative to control; parameters: scale not given: the % may be the effect or the level left
[19] = system: SW-620; experiment: Growth inhibition of human SW620 cells at 10 uM after 24 hrs by MTT assay relative to control; parameters: scale not given: the % may be the effect or the level left
[20] = system: EKVX; experiment: Growth inhibition of human EKVX cells after 24 hrs by MTT assay
[21] = system: MDA-MB-231; experiment: Growth inhibition of human MDA-MB-231 cells at 10 uM after 24 hrs by MTT assay relative to control; parameters: scale not given: the % may be the effect or the level left
[22] = system: HL-60(TB); experiment: Growth inhibition of human HL-60(TB) cells after 24 hrs by MTT assay; conditions: HL-60, 24 h
[23] = system: Malme-3M; experiment: Growth inhibition of human MALME-3M cells after 24 hrs by MTT assay
[24] = system: UACC-62; experiment: Growth inhibition of human UACC62 cells at 10 uM after 24 hrs by MTT assay relative to control; parameters: scale not given: the % may be the effect or the level left
[25] = system: HOP-92; experiment: Growth inhibition of human HOP92 cells after 24 hrs by MTT assay; conditions: HOP-92, 24 h
[26] = system: SNB-19; experiment: Growth inhibition of human SNB19 cells after 24 hrs by MTT assay; conditions: SNB-19, 24 h
[27] = system: HL-60(TB); experiment: Growth inhibition of human HL-60(TB) cells at 10 uM after 24 hrs by MTT assay relative to control; parameters: scale not given: the % may be the effect or the level left
[28] = system: U-251; experiment: Growth inhibition of human U251 cells after 24 hrs by MTT assay; conditions: U-251, 24 h
[29] = system: BT-549; experiment: Growth inhibition of human BT549 cells after 24 hrs by MTT assay; conditions: BT-549, 24 h
[30] = system: HCT-116; experiment: Growth inhibition of human HCT116 cells at 10 uM after 24 hrs by MTT assay relative to control; parameters: scale not given: the % may be the effect or the level left
[31] = system: DU-145; experiment: Growth inhibition of human DU145 cells at 10 uM after 24 hrs by MTT assay relative to control; parameters: scale not given: the % may be the effect or the level left
[32] = system: SF-268; experiment: Growth inhibition of human SF268 cells at 10 uM after 24 hrs by MTT assay relative to control; parameters: scale not given: the % may be the effect or the level left
[33] = read-out: LC50 (the source's name)
[34] = read-out: pLC50 (the source's name) (converted)

Cc1onc(-c2c3ccccc3c(Cl)c3ccccc23)c1C(=O)Nc1cc(C(=O)NCCCN(C)CCCNC(=O)c2cc(NC(=O)c3c(-c4c5ccccc5c(Cl)c5ccccc45)noc3C)cn2C)n(C)c1
TGI [1]: 2750 nM | GI50 ([1]; read-out: GI50): 1440 nM | CC50 [1, 33]: 5240 nM | GI50 ([1]; read-out: pGI50 (converted)): 1450 nM | CC50 [1, 34]: 5250 nM | TGI [2]: 4590 nM | GI50 ([2]; read-out: GI50): 2150 nM | CC50 [2, 33]: 9770 nM | GI50 ([2]; read-out: pGI50 (converted)): 2140 nM | CC50 [2, 34]: 9770 nM | TGI [3]: 2900 nM | GI50 ([3]; read-out: GI50): 1390 nM | GI50 ([3]; read-out: pGI50 (converted)): 1380 nM | TGI [4]: 2480 nM | GI50 ([4]; read-out: GI50): 1240 nM | CC50 [4, 33]: 4980 nM | GI50 ([4]; read-out: pGI50 (converted)): 1230 nM | CC50 [4, 34]: 5010 nM | TGI [5]: 3140 nM | GI50 ([5]; read-out: GI50): 1650 nM | GI50 ([5]; read-out: pGI50 (converted)): 1660 nM | Activity [6]: -92.68% | TGI [7]: 2470 nM | GI50 ([7]; read-out: GI50): 1200 nM | GI50 ([7]; read-out: pGI50 (converted)): 1200 nM | Activity [8]: 47.82% | TGI [9]: 2650 nM | GI50 ([9]; read-out: GI50): 1360 nM | CC50 [9, 33]: 5140 nM | GI50 ([9]; read-out: pGI50 (converted)): 1350 nM | CC50 [9, 34]: 5130 nM | Activity [10]: -97.3% | TGI [11]: 2230 nM | GI50 ([11]; read-out: GI50): 1050 nM | CC50 [11, 33]: 4720 nM | GI50 ([11]; read-out: pGI50 (converted)): 1050 nM | CC50 [11, 34]: 4680 nM | LC50 [12]: 100000 nM | TGI [12]: 2030 nM | GI50 ([12]; read-out: GI50): 394 nM | GI50 ([12]; read-out: pGI50 (converted)): 398 nM | CC50 [12, 34]: > 100000 nM | TGI [13]: 3300 nM | GI50 ([13]; read-out: GI50): 1630 nM | GI50 ([13]; read-out: pGI50 (converted)): 1620 nM | TGI [14]: 2870 nM | GI50 ([14]; read-out: GI50): 1540 nM | CC50 [14, 33]: 5360 nM | GI50 ([14]; read-out: pGI50 (converted)): 1550 nM | CC50 [14, 34]: 5370 nM | TGI [15]: 4100 nM | GI50 ([15]; read-out: GI50): 2080 nM | GI50 ([15]; read-out: pGI50 (converted)): 2090 nM | TGI [16]: 2780 nM | GI50 ([16]; read-out: GI50): 1470 nM | CC50 [16, 33]: 5270 nM | GI50 ([16]; read-out: pGI50 (converted)): 1480 nM | CC50 [16, 34]: 5250 nM | TGI [17]: 2710 nM | GI50 ([17]; read-out: GI50): 1070 nM | CC50 [17, 33]: 6840 nM | GI50 ([17]; read-out: pGI50 (converted)): 1070 nM | CC50 [17, 34]: 6920 nM | Activity [18]: -100% | Activity [19]: -100% | TGI [20]: 5270 nM | GI50 ([20]; read-out: GI50): 1910 nM | CC50 [20, 33]: 100000 nM | GI50 ([20]; read-out: pGI50 (converted)): 1910 nM | CC50 [20, 34]: > 100000 nM | Activity [21]: -100% | TGI [22]: 8300 nM | GI50 ([22]; read-out: GI50): 1610 nM | CC50 [22, 33]: 42000 nM | GI50 ([22]; read-out: pGI50 (converted)): 1620 nM | CC50 [22, 34]: 41700 nM | TGI [23]: 4270 nM | GI50 ([23]; read-out: GI50): 1930 nM | GI50 ([23]; read-out: pGI50 (converted)): 1950 nM | Activity [24]: -100% | TGI [25]: 2480 nM | GI50 ([25]; read-out: GI50): 1220 nM | CC50 [25, 33]: 5030 nM | GI50 ([25]; read-out: pGI50 (converted)): 1230 nM | CC50 [25, 34]: 5010 nM | TGI [26]: 3500 nM | GI50 ([26]; read-out: GI50): 1560 nM | CC50 [26, 33]: 7860 nM | GI50 ([26]; read-out: pGI50 (converted)): 1550 nM | CC50 [26, 34]: 7940 nM | Activity [27]: -94.78% | GI50 ([28]; read-out: GI50): 1500 nM | GI50 ([28]; read-out: pGI50 (converted)): 1510 nM | TGI [29]: 10200 nM | GI50 ([29]; read-out: GI50): 2920 nM | CC50 [29, 33]: 100000 nM | GI50 ([29]; read-out: pGI50 (converted)): 2950 nM | CC50 [29, 34]: > 100000 nM | Activity [30]: -84.49% | Activity [31]: -100% | Activity [32]: -100%
